Data taken from patent US5891871A, “Substituted 2,3-benzodiazepin-4-ones and the use thereof” (CoCensys, Inc., priority 1997, dated 1999).

Tests used:
[1] = literature; cited from earlier work
[2] = literature; cited from earlier work; remark: listed apart in the source
AMPA receptor = AMPA receptor antagonism / positive modulation: AMPA induced current in Xenopus oocytes expressing rat whole brain poly(A)+ RNA (electrophysiology); assay type: cell-based; conditions: for IC50: oocytes expressing rat brain AMPA receptors; for AMPA positive potentiation, 200% @ μM: concentration at which AMPA current is potentiated 200%
Method: The novel substituted 2,3-benzodiazepin-4-ones were assessed by electrophysiological assays in Xenopus oocytes expressing rat whole brain poly(A)^+ RNA (see Keana et al, J. Med. Chem. 38. 4367-4379 (1995)) or in cultured rat cortical neurons (see Woodward et. al. Mol. Pharmacol. 47: 568-581 (1995)) for AMPA receptor activity. Compounds which are useful for treating or preventing the adverse consequences of stroke, hypoglycemia, neurodegenerative disorders, anxiety, epilepsy or psychosis, or which induce analgesia, will inhibit the currents across the membranes of the oocyte expressing AMPA receptors. However, if the compound potentiates currents across the oocyte membrane, then the compound is expected to be useful in enhancing cognition or treating schizophrenia or neurodegenerative diseases such as Parkinson's Disease.
The ability of AMPA receptor antagonists or positive modulators to inhibit or enhance AMPA induced current in oocyte expressing neuronal AMPA receptor was determined using procedures fully described in Keana et al, J. Med. Chem. 38: 4367-4379 (1995). […] The compounds of examples 22, 30 and 31 are positive modulators of AMPA receptor. They potentiate the AMPA current 200% at a concentration of 11, 10 and 11 μM, respectively.

mice = experiment: Maximal Electroshock-induced Seizure (MES) test; assay type: in vivo; conditions: for ED50: Mus musculus, mice, iv; for anticonvulsant activity in the MES experiment: in words
Method: Seizures are induced by application of current (50 mA, 60 pulses/sec, […], 1 sec duration, .c.) through saline-coated corneal electrodes using a Ugo Basile ECT device (Model 7801). […] A tonic seizure is defined as a hindlimb extension in excess of 90 degrees from the plane of the body. Results are treated in a quintal manner.

[3] = literature; cited from earlier work; remark: listed apart in the source
rat = conditions: literature; cited from earlier work
AMPA receptors = conditions: literature; cited from earlier work
[4] = literature; cited from earlier work; remark: listed apart in the source

Row | SMILES | IC50 (AMPA receptor) [µM] | AMPA positive potentiation, 200% @ μM (AMPA receptor) [µM] | further results
1 | CC1Cc2cc3c(cc2C(c2ccc(N)cc2)=NN1)OCO3 (centres unmarked) | – | – | central nervous effect [1]: CNS stimulating activity
2 | O=C(c1ccc2c(c1)OCO2)N1CCCCC1 [BDP, 1-(1,3-benzodioxol-5-ylcarbonyl) piperidine] | – | – | memory enhancement [2]: enhance memory
3 | Cc1ccc(C2=NNC(=O)Cc3cc4c(cc32)OCO4)cc1 [Example 9, 7,8-Methylenedioxy-1-(4-methylphenyl)-3,5-dihydro-2,3-benzodiazepin-4(4H)-one] | 15 | – | –
4 | Nc1ccc(C2=NNC(=O)Cc3cc4c(cc32)OCO4)cc1 [Example 14, 1-(4-Aminophenyl)-7,8-methylenedioxy-3,5-dihydro-2,3-benzodiazepin-4(4H)-one] | 3 | – | ED50 (mice): 2.4 mg/kg; anticonvulsant activity in the MES experiment (mice): active as anticonvulsants
5 | CNC(=O)N1N=C(c2ccccc2)c2cc3c(cc2CC1=O)OCO3 [Example 15, 7,8-Methylenedioxy-3-methylaminocarbonyl-1-phenyl-3,5-dihydro-2,3-benzodiazepin-4(4H)-one] | 26 | – | –
6 | CC(C)N1N=C(c2ccccc2)c2cc3c(cc2CC1=O)OCO3 [Example 18, 3-Isopropyl-7,8-methylenedioxy-1-phenyl-3,5-dihydro-2,3-benzodiazepin-4(4H)-one] | – | 30 | –
7 | CCC(C)N1N=C(c2ccccc2)c2cc3c(cc2CC1=O)OCO3 (centres unmarked) [Example 21, 3-(2-Butyl)-7,8-methylenedioxy-1-phenyl-3,5-dihydro-2,3-benzodiazepin-4(4H)-one] | – | 12 | –
8 | CCC(CC)N1N=C(c2ccccc2)c2cc3c(cc2CC1=O)OCO3 [Example 22, 7,8-Methylenedioxy-3-(3-pentyl)-1-phenyl-3,5-dihydro-2,3-benzodiazepin-4(4H)-one] | – | 11 | –
9 | CCCC(C)N1N=C(c2ccccc2)c2cc3c(cc2CC1=O)OCO3 (centres unmarked) [Example 25, 7,8-Methylenedioxy-3-(2-pentyl)-1-phenyl-3,5-dihydro-2,3-benzodiazepin-4(4H)-one] | – | 160 | –
10 | O=C1Cc2cc3c(cc2C(c2ccccc2)=NN1C1CCCCCC1)OCO3 [Example 30, 3-Cycloheptyl-7,8-methylenedioxy-1-phenyl-3,5-dihydro-2,3-benzodiazepin-4(4H)-one] | – | 10 | –
11 | O=C1Cc2cc3c(cc2C(c2ccccc2)=NN1C1CCCCC1)OCO3 [Example 31, 3-Cyclohexyl-7,8-methylenedioxy-1-phenyl-3,5-dihydro-2,3-benzodiazepin-4(4H)-one] | – | 11 | –
12 | CCCC(CC)N1N=C(c2ccccc2)c2cc3c(cc2CC1=O)OCO3 (centres unmarked) [Example 33, 3-(3-Hexyl)-7,8-methylenedioxy-1-phenyl-3,5-dihydro-2,3-benzodiazepin-4(4H)-one] | – | 24 | –
13 | CC1C(=O)NN=C(c2ccc(N)cc2)c2cc3c(cc21)OCO3 (centres unmarked) [Example 45, 1-(4-Aminophenyl)-5-methyl-7,8-methylenedioxy-3,5-dihydro-2,3-benzodiazepin-4(4H)-one] | 4 | – | –
14 | CC1C(=O)NN=C(c2ccc3c(c2)OCO3)c2cc3c(cc21)OCO3 (centres unmarked) [Example 48, 5-Methyl-1-(3,4-methylenedioxyphenyl)-7,8-methylenedioxy-3,5-dihydro-2,3-benzodiazepin-4(4H)-one] | 10 | – | –
15 | COc1cc(C2=NNC(=O)Cc3cc4c(cc32)OCO4)ccc1[N+](=O)[O-] [Example 56, 7,8-Methylenedioxy-1-(3-methoxy-4-nitrophenyl)-3,5-dihydro-2,3-benzodiazepin-4(4H)-one] | 20 | – | –
16 | Cc1cc(C2=NNC(=O)Cc3cc4c(cc32)OCO4)ccc1N [Example 61, 1-(4-Amino-3-methylphenyl)-7,8-methylenedioxy-3,5-dihydro-2,3-benzodiazepin-4(4H)-one] | 1 | – | ED50 (mice): 2.7 mg/kg; anticonvulsant activity in the MES experiment (mice): active as anticonvulsants
17 | Nc1ccc(C2=NNC(=O)Cc3cc4c(cc32)OCO4)c(Cl)c1 [Example 62, 1-(4-Amino-2-chlorophenyl)-7,8-methylenedioxy-3,5-dihydro-2,3-benzodiazepin-4(4H)-one] | 4 | – | ED50 (mice): 3.2 mg/kg; anticonvulsant activity in the MES experiment (mice): active as anticonvulsants
18 | Nc1ccc(C2=NNC(=O)Cc3cc4c(cc32)OCO4)cc1Cl [Example 63, 1-(4-Amino-3-chlorophenyl)-7,8-methylendioxy-3,5-dihydro-2,3-benzodiazepin-4(4H)-one] | 0.8 | – | –
19 | CC1=NN=C(c2ccc(N)cc2)c2cc3c(cc2C1)OCO3.Cl [GYKI 52466, 1-(4-aminophenyl)-4-methyl-7,8-methylenedioxy-5H-2,3-benzodiazepine-hydrochloride] | – | – | anticonvulsant activity [3]: effective anticonvulsant; neuroprotection in rat global ischemia (rat): effective neuroprotective agent
20 | CC(=O)N1N=C(c2ccc(N)cc2)c2cc3c(cc2C[C@H]1C)OCO3 [LY300164] | – | – | anticonvulsant activity [3]: anticonvulsant activity; AMPA receptor antagonism (AMPA receptors): noncompetitive antagonist of AMPA receptors
21 | NS(=O)(=O)c1cccc2c1c([N+](=O)[O-])cc1nc(O)c(O)nc12 [NBQX, 2,3-dihydroxy-6-nitro-7-sulfamoylbenzo[f]quinoxaline] | – | – | prevention of global and focal ischemic damage [4]: effective in preventing global and focal ischemic damage
